Reference: ChEMBL document CHEMBL5360532, “Current scenario of quinolone hybrids with potential antibacterial activity against ESKAPE pathogens” (Eur J Med Chem, 2023)
≈ marks a conversion by molar mass, not a printed value.

Assays:
Assay type in all cases: functional
[1] = tested on: Staphylococcus epidermidis; assay: Antibacterial activity against Staphylococcus epidermidis ATCC 12228 assessed as bacterial growth inhibition by agar dilution method
Bacillus subtilis = assay: Antibacterial activity against Bacillus subtilis PTCC 1023 assessed as bacterial growth inhibition by agar dilution method
Staphylococcus aureus [2] = assay: Antibacterial activity against Staphylococcus aureus ATCC 6538p assessed as bacterial growth inhibition by agar dilution method
Klebsiella pneumoniae [3] = assay: Antibacterial activity against Klebsiella pneumoniae ATCC 10031 assessed as bacterial growth inhibition by agar dilution method
Escherichia coli [4] = assay: Antibacterial activity against Escherichia coli ATCC 8739 assessed as bacterial growth inhibition by agar dilution method
Enterobacter cloacae = assay: Antibacterial activity against Enterobacter cloacae PTCC 1003 assessed as bacterial growth inhibition by agar dilution method
Staphylococcus aureus [5] = assay: Antibacterial activity against clinical isolate erythromycin/methicillin resistant Staphylococcus aureus NRS 70 assessed as bacterial growth inhibition measured after 16 to 18 hrs by serial dilution method; settings: time 16-18 hrs
Staphylococcus aureus [6] = assay: Antibacterial activity against fluoroquinolone/methicillin resistant Staphylococcus aureus clinical isolate 19-26 assessed as bacterial growth inhibition measured after 16 to 18 hrs by serial dilution method; settings: time 16-18 hrs
Staphylococcus aureus [7] = assay: Antibacterial activity against clinical isolate gentamycin/methicillin resistant Staphylococcus aureus NRS 108 assessed as bacterial growth inhibition measured after 16 to 18 hrs by serial dilution method; settings: time 16-18 hrs
Staphylococcus aureus [8] = assay: Antibacterial activity against clinical isolate oxacillin/tetracycline/methicillin resistant Staphylococcus aureus NRS 100 assessed as bacterial growth inhibition measured after 16 to 18 hrs by serial dilution method; settings: time 16-18 hrs
Staphylococcus aureus [9] = assay: Antibacterial activity against Staphylococcus aureus Newman assessed as bacterial growth inhibition measured after 16 to 18 hrs by serial dilution method; settings: time 16-18 hrs
Staphylococcus aureus [10] = assay: Antibacterial activity against clinical isolate aminoglycosides/tetracycline/methicillin resistant Staphylococcus aureus NRS 1 assessed as bacterial growth inhibition measured after 16 to 18 hrs by serial dilution method; settings: time 16-18 hrs
Staphylococcus aureus [11] = assay: Antibacterial activity against fluoroquinolone/methicillin resistant Staphylococcus aureus clinical isolate 19-27 assessed as bacterial growth inhibition measured after 16 to 18 hrs by serial dilution method; settings: time 16-18 hrs
Staphylococcus aureus [12] = assay: Antibacterial activity against methicillin resistant Staphylococcus aureus ATCC 43300 assessed as bacterial growth inhibition measured after 16 to 18 hrs by serial dilution method; settings: time 16-18 hrs
Staphylococcus aureus [13] = assay: Antibacterial activity against vancomycin-intermediate methicillin resistant Staphylococcus aureus ATCC 700699 assessed as bacterial growth inhibition measured after 16 to 18 hrs by serial dilution method; settings: time 16-18 hrs
Staphylococcus aureus [14] = assay: Antibacterial activity against clinical isolate linezolid/methicillin resistant Staphylococcus aureus NRS 271 assessed as bacterial growth inhibition measured after 16 to 18 hrs by serial dilution method; settings: time 16-18 hrs
Staphylococcus aureus [15] = assay: Antibacterial activity against methicillin resistant Staphylococcus aureus ATCC 33591 assessed as bacterial growth inhibition measured after 16 to 18 hrs by serial dilution method; settings: time 16-18 hrs
Staphylococcus aureus [16] = assay: Antibacterial activity against fluoroquinolone/methicillin resistant Staphylococcus aureus clinical isolate 19-25 assessed as bacterial growth inhibition measured after 16 to 18 hrs by serial dilution method; settings: time 16-18 hrs
Klebsiella pneumoniae [17] = assay: Antibacterial activity against Klebsiella pneumoniae assessed as bacterial growth inhibition measured after 20 hrs by serial dilution method
Pseudomonas aeruginosa [18] = assay: Antibacterial activity against Pseudomonas aeruginosa assessed as bacterial growth inhibition measured after 20 hrs by serial dilution method
Escherichia coli [19] = assay: Antibacterial activity against Escherichia coli assessed as bacterial growth inhibition measured after 20 hrs by serial dilution method
Staphylococcus aureus [20] = assay: Antibacterial activity against Staphylococcus aureus assessed as bacterial growth inhibition measured after 20 hrs by serial dilution method
Pseudomonas aeruginosa [21] = assay: Antibacterial activity against Pseudomonas aeruginosa clinical isolate 1 assessed as bacterial growth inhibition by agar disc diffusion assay
Alternaria = assay: Antifungal activity against Alternaria assessed as fungal growth inhibition measured after 7 days by agar disc diffusion assay; settings: 168 h, time 7 day
[22] = tested on: Fusarium oxysporum f. sp. lycopersici; assay: Antifungal activity against Fusarium oxysporum f. sp. lycopersici assessed as fungal growth inhibition measured after 7 days by agar disc diffusion assay; settings: 168 h, time 7 day
Escherichia coli [23] = assay: Antibacterial activity against Escherichia coli ATCC 25922 assessed as bacterial growth inhibition by agar disc diffusion assay
Staphylococcus aureus [24] = assay: Antibacterial activity against Staphylococcus aureus ATCC 25923 assessed as bacterial growth inhibition by agar disc diffusion assay
Escherichia coli [25] = assay: Antibacterial activity against Escherichia coli clinical isolate 1 assessed as bacterial growth inhibition by agar disc diffusion assay
Staphylococcus aureus [26] = assay: Antibacterial activity against Staphylococcus aureus clinical isolate 1 assessed as bacterial growth inhibition by agar disc diffusion assay
Pseudomonas aeruginosa [27] = assay: Antibacterial activity against Pseudomonas aeruginosa ATCC 27853 assessed as bacterial growth inhibition by agar disc diffusion assay
Staphylococcus aureus [28] = assay: Antibacterial activity against vancomycin-intermediate methicillin resistant Staphylococcus aureus ATCC 700788 assessed as bacterial growth inhibition measured after 16 to 18 hrs by serial dilution method; settings: time 16-18 hrs
Staphylococcus aureus [29] = assay: Antibacterial activity against Staphylococcus aureus ATCC 29213 assessed as bacterial growth inhibition by broth microdilution assay
Pseudomonas aeruginosa [30] = assay: Antibacterial activity against Pseudomonas aeruginosa assessed as bacterial growth inhibition by serial dilution method
Staphylococcus aureus [31] = assay: Antibacterial activity against Staphylococcus aureus assessed as bacterial growth inhibition by serial dilution method
Acinetobacter baumannii = assay: Antibacterial activity against Acinetobacter baumannii assessed as bacterial growth inhibition by serial dilution method
Klebsiella pneumoniae [32] = assay: Antibacterial activity against Klebsiella pneumoniae assessed as bacterial growth inhibition by serial dilution method
Escherichia coli [33] = assay: Antibacterial activity against Escherichia coli assessed as bacterial growth inhibition by serial dilution method
Candida albicans = assay: Antifungal activity against Candida albicans assessed as fungal growth inhibition measured after 24 hrs by agar cup diffusion assay
Staphylococcus aureus [34] = assay: Antibacterial activity against Staphylococcus aureus assessed as bacterial growth inhibition measured after 24 hrs by agar cup diffusion assay
Pseudomonas aeruginosa [35] = assay: Antibacterial activity against Pseudomonas aeruginosa assessed as bacterial growth inhibition measured after 24 hrs by agar cup diffusion assay
Escherichia coli [36] = assay: Antibacterial activity against Escherichia coli assessed as bacterial growth inhibition measured after 24 hrs by agar cup diffusion assay
Escherichia coli [37] = assay: Antibacterial activity against Escherichia coli assessed as zone of inhibition at 250 ug/ml by agar well diffusion assay; settings: read-out: IZ
Klebsiella pneumoniae [38] = assay: Antibacterial activity against Klebsiella pneumoniae assessed as zone of inhibition at 250 ug/ml by agar well diffusion assay; settings: read-out: IZ
Staphylococcus aureus [39] = assay: Antibacterial activity against Staphylococcus aureus assessed as zone of inhibition at 250 ug/ml by agar well diffusion assay; settings: read-out: IZ
Pseudomonas aeruginosa [40] = assay: Antibacterial activity against Pseudomonas aeruginosa assessed as zone of inhibition at 250 ug/ml by agar well diffusion assay; settings: read-out: IZ

`COc1cc(OC)nc(/N=N/N2CCN(c3cc4c(cc3F)c(=O)c(C(=O)C(C(C)=O)C(C)=O)cn4C3CC3)CC2)n1` gave an MIC [1] of 0.015 µg/mL (≈ 0.0259 µM), an MIC (Bacillus subtilis) of 0.015 µg/mL (≈ 0.0259 µM) and an MIC (Staphylococcus aureus [2]) of 0.015 µg/mL (≈ 0.0259 µM). It also gave an MIC (Klebsiella pneumoniae [3]) of 0.015 µg/mL (≈ 0.0259 µM), an MIC (Escherichia coli [4]) of 0.015 µg/mL (≈ 0.0259 µM) and an MIC (Enterobacter cloacae) of 0.015 µg/mL (≈ 0.0259 µM).
With `Cc1ccc(Oc2ccnc(Nc3ccc4c(=O)c(C(=O)O)cn(C5CC5)c4c3)n2)cc1` the MIC (Staphylococcus aureus [5]) was ≤ 0.17 µg/mL, the MIC (Staphylococcus aureus [6]) was ≤ 0.17 µg/mL and the MIC (Staphylococcus aureus [7]) was ≤ 0.17 µg/mL. The MIC (Staphylococcus aureus [8]) was ≤ 0.17 µg/mL, the MIC (Staphylococcus aureus [9]) was ≤ 0.17 µg/mL and the MIC (Staphylococcus aureus [10]) was ≤ 0.17 µg/mL. The MIC (Staphylococcus aureus [11]) was ≤ 0.17 µg/mL, the MIC (Staphylococcus aureus [12]) was ≤ 0.17 µg/mL and the MIC (Staphylococcus aureus [13]) was ≤ 0.17 µg/mL. For the same compound, the MIC (Staphylococcus aureus [14]) was ≤ 0.17 µg/mL, the MIC (Staphylococcus aureus [15]) was ≤ 0.17 µg/mL and the MIC (Staphylococcus aureus [16]) was ≤ 0.17 µg/mL.
Compound `Cc1cccc2cc(/C=C3\NC(=S)NC3=O)c(=O)[nH]c12` has an MIC (Klebsiella pneumoniae [17]) of 0.24 µg/mL (≈ 0.841 µM), an MIC (Pseudomonas aeruginosa [18]) of 0.24 µg/mL (≈ 0.841 µM) and an MIC (Escherichia coli [19]) of 0.24 µg/mL (≈ 0.841 µM). The MIC (Staphylococcus aureus [20]) was 0.24 µg/mL (≈ 0.841 µM).
`CCOP(=O)(OCC)C(NS(=O)(=O)Nc1ccccc1OC)c1cc2cccc(C)c2[nH]c1=O` (stereo not given) was tested, and the MIC (Pseudomonas aeruginosa [21]) was 0.125 µg/mL (≈ 0.245 µM), the MIC (Alternaria) was 0.125 µg/mL (≈ 0.245 µM) and the MIC [22] was 0.125 µg/mL (≈ 0.245 µM). The MIC (Escherichia coli [23]) was 0.125 µg/mL (≈ 0.245 µM), the MIC (Staphylococcus aureus [24]) was 0.125 µg/mL (≈ 0.245 µM) and the MIC (Escherichia coli [25]) was 0.125 µg/mL (≈ 0.245 µM). It also gave an MIC (Staphylococcus aureus [26]) of 0.125 µg/mL (≈ 0.245 µM) and an MIC (Pseudomonas aeruginosa [27]) of 0.125 µg/mL (≈ 0.245 µM).
`CN[C@H](CC(C)C)C(=O)N[C@H]1C(=O)N[C@@H](CC(N)=O)C(=O)N[C@H]2C(=O)N[C@H]3C(=O)N[C@H](C(=O)N[C@H](C(=O)O)c4cc(O)cc(O)c4-c4cc3ccc4O)[C@H](O)c3ccc(c(Cl)c3)Oc3cc2cc(c3O[C@@H]2O[C@H](CO)[C@@H](O)[C@H](O)[C@H]2O[C@H]2C[C@](C)(N)[C@H](O)[C@H](C)O2)Oc2ccc(cc2Cl)[C@H]1O` [VANCOMYCIN] was tested, and the MIC (Staphylococcus aureus [5]) was 0.78 µg/mL (≈ 0.538 µM), the MIC (Staphylococcus aureus [6]) was 0.78 µg/mL (≈ 0.538 µM) and the MIC (Staphylococcus aureus [7]) was 0.78 µg/mL (≈ 0.538 µM). For the same compound, the MIC (Staphylococcus aureus [8]) was 0.78 µg/mL (≈ 0.538 µM), the MIC (Staphylococcus aureus [9]) was 0.78 µg/mL (≈ 0.538 µM) and the MIC (Staphylococcus aureus [10]) was 0.78 µg/mL (≈ 0.538 µM). The MIC (Staphylococcus aureus [28]) was 0.78 µg/mL (≈ 0.538 µM), the MIC (Staphylococcus aureus [11]) was 0.78 µg/mL (≈ 0.538 µM) and the MIC (Staphylococcus aureus [12]) was 0.78 µg/mL (≈ 0.538 µM). For the same compound, the MIC (Staphylococcus aureus [13]) was 0.78 µg/mL (≈ 0.538 µM), the MIC (Staphylococcus aureus [14]) was 0.78 µg/mL (≈ 0.538 µM) and the MIC (Staphylococcus aureus [15]) was 0.78 µg/mL (≈ 0.538 µM). It also gave an MIC (Staphylococcus aureus [16]) of 0.78 µg/mL (≈ 0.538 µM).
`COc1ccc2nc(CN3CCN(c4cc5c(cc4F)c(=O)c(C(=O)O)cn5C4CC4)CC3)[nH]c(=O)c2c1` showed an MIC (Staphylococcus aureus [29]) of 0.031 µg/mL (≈ 0.0597 µM).
With `Cc1ccc(/N=C(\N2CCN(c3cc4c(cc3F)c(=O)c(C(=O)O)cn4C3CC3)CC2)C(F)(F)F)cc1` the MIC (Pseudomonas aeruginosa [30]) was 0.039 µg/mL (≈ 0.0755 µM), the MIC (Staphylococcus aureus [31]) was 0.039 µg/mL (≈ 0.0755 µM) and the MIC (Acinetobacter baumannii) was 0.039 µg/mL (≈ 0.0755 µM). The MIC (Klebsiella pneumoniae [32]) was 0.039 µg/mL (≈ 0.0755 µM) and the MIC (Escherichia coli [33]) was 0.039 µg/mL (≈ 0.0755 µM).
With `CCOP(=O)(OCC)C(NS(=O)(=O)Nc1ccc(F)cc1)c1cc2cccc(C)c2[nH]c1=O` (stereo not given) the MIC (Pseudomonas aeruginosa [21]) was 0.5 µg/mL (≈ 1.01 µM), the MIC (Alternaria) was 0.125 µg/mL (≈ 0.251 µM) and the MIC [22] was 0.125 µg/mL (≈ 0.251 µM). The MIC (Escherichia coli [23]) was 0.5 µg/mL (≈ 1.01 µM), the MIC (Staphylococcus aureus [24]) was 0.5 µg/mL (≈ 1.01 µM) and the MIC (Escherichia coli [25]) was 0.5 µg/mL (≈ 1.01 µM). The MIC (Staphylococcus aureus [26]) was 0.5 µg/mL (≈ 1.01 µM) and the MIC (Pseudomonas aeruginosa [27]) was 0.5 µg/mL (≈ 1.01 µM).
With `O=C(/C=C/c1ccc(F)cc1)c1ccc(NC(=O)N2CCN(c3cc4c(cc3F)c(=O)c(C(=O)O)cn4C3CC3)CC2)cc1` the MIC (Candida albicans) was 2.03 µg/mL (≈ 3.39 µM), the MIC (Staphylococcus aureus [34]) was 0.53 µg/mL (≈ 0.885 µM) and the MIC (Pseudomonas aeruginosa [35]) was 0.53 µg/mL (≈ 0.885 µM). The MIC (Escherichia coli [36]) was 0.53 µg/mL (≈ 0.885 µM).
In the case of `COC(=O)c1cn(C2CC2)c2cc(N3CCN(CC(=O)OC(C)Cn4c([N+](=O)[O-])cnc4C)CC3)c(F)cc2c1=O` (stereo not given), the zone of inhibition at 250 µg/mL (Escherichia coli [37]) is reported as 19 mm, the zone of inhibition at 250 µg/mL (Klebsiella pneumoniae [38]) is reported as 19 mm and the zone of inhibition at 250 µg/mL (Staphylococcus aureus [39]) is reported as 19 mm. The zone of inhibition at 250 µg/mL (Pseudomonas aeruginosa [40]) was 19 mm.
